# From PubChem BioAssay AID2060892 (Molecular Pharmacology Branch, DTP, NCI, 2025)
# “And” between values parts separate entries of the source, which are not always exact repeats. Equal values may be shown once.
# Tested on: HOP-62 complex spheroids with HUVEC/MSC, viability
# Test: Anticancer human tumor HOP-62 cell line growth inhibition [RAS];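 also: spheroids exposed to agents for seven days before readout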;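 as to viability, T/C: 100% = DMSO vehicle control viability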
# Settings: for viability, T/C: stronger effect = lower value
# Text: RAS pathway inhibitors in Combinations in Complex Spheroids
# A high-throughput screen of multi-cell type tumor spheroids was designed to identify active combinations of RAS pathway inhibitors and targeted small molecules. Complex spheroids include a stromal component modeled by human endothelial cells (HUVEC) and fibroblasts modeled by human mesenchymal stem cells (MSCs). The concentration ranges selected for each drug and investigational agent were based upon clinically achievable concentrations if the clinical Cmax of the agent was known.
# Compounds. The drugs and investigational agents: abemaciclib (NSC768073), cobimetinib (NSC768068), divarasib (GDC6063, NSC841802), docetaxel (NSC628503), GDC-1971 (RLY-1971, NSC841576), gemcitabine (NSC613327), inavolisib (NSC800729), ipatasertib (NSC767898), KB-0742 (NSC834161), MRTX-1133 (NSC836407), osimertinib (NSC779217), RMC-4630 (NSC839698), RMC-6236 (NSC851965), RMC-6291 (NSC852671), Ro-3306 (NSC812927), sapanisertib (NSC764658), SN-38 (NSC673596), staurosporine (NSC755774), SY5609 (NSC837396), and tovorafenib (DAY101, NSC766906), were obtained from the National Cancer Institute (NCI) Developmental Therapeutics Program Chemical Repository. The FDA-approved anticancer drug set is available from the NCI Developmental Therapeutics Program. […] The stock solutions were prepared in dimethyl sulfoxide (DMSO, Sigma-Aldrich, St. Louis, MO, cat. D2650) at 800-fold the tested concentration and stored at -70 degrees C prior to their use. All drugs and investigational agents were tested over a range starting from a high concentration at or near the clinical Cmax and decreasing in half-log increments. If the clinical Cmax for an agent had not been determined, the highest concentration tested was 10 microM.
# Cell Culture. All cells were maintained in an incubator at 37 degrees C and 5% CO2 with 95% humidity. The PDC lines were cultured according to standard operating procedures established by the NCI PDMR. All PDCs were thawed and cultured in Matrigel-coated flasks prepared with a working solution of 1X Ham's F-12 nutrient mix, without supplementation (Invitrogen, Waltham, MA, cat. 11765054), 100 U/mL penicillin-streptomycin (Invitrogen, cat. 15140122), and 2.5% Matrigel (Corning Inc., Corning, NY, cat. 354248) for the first three passages. The 362531-283-R-J2-PDC and 782815-120-R-J1-PDC lines were cultured in 6C/Colon 1B media, which includes advanced DMEM/F-12 (Thermo Fisher Scientific, cat. 12634028), 10 mM HEPES (Thermo Fisher Scientific, cat. 15630080), 1X GlutaMAX supplement (Thermo Fisher Scientific, cat. 35050061), 0.1 mg/mL primocin (InvivoGen, San Diego, CA, cat. ant-pm-2), 10% defined fetal bovine serum, heat inactivated (HyClone Laboratories Inc., Logan, UT, cat. SH30070.03HI), 50% L-WRN conditioned media (ATCC, cat. CRL-3276), 1.25 mM N-Acetyl-L-cysteine (Sigma-Aldrich, cat. A9165), 10 mM nicotinamide (Sigma-Aldrich, cat. N0636), 1X B-27 supplement (Thermo Fisher Scientific, cat. 17504044), 1X N-2 supplement (Thermo Fisher Scientific, cat. 17502048), 50 ng/mL human EGF (Thermo Fisher Scientific, cat. PHG0311), and 10 microM Y-27632 dihydrochloride (Tocris Bioscience, cat. 1254). The K12877-001-R-J1-PDC line was cultured in 6I media, which includes all 6C/Colon 1B media plus 10 ng/mL human FGF-10 (PeproTech, cat. 100-26), 1 ng/mL human FGF-2 (PeproTech, cat. 100-18B), 1 µM prostaglandin E2 (Tocris Bioscience, cat. 2296), […] hydrocortisone (Sigma-Aldrich, cat. H4001), and […] bovine insulin (Sigma-Aldrich, cat. I6634). The K86415-001-R-J1-PDC line was cultured in 6D media, which includes all 6C/Colon 1B media components minus the L-WRN conditioned media. The 485176-168-R4-J1-PDC was cultured in PANC media, which includes all 6C/Colon 1B media plus 100 ng/mL human FGF-10 (PeproTech, cat. 100-26), 500 nM SB-431542 (Selleckchem, cat. S1067), and 10 nM gastrin (Tocris Bioscience, cat. 3006). […]
# [1] = compound alone, run of 07/09/2024
Structure (SMILES),"viability, T/C (compound 0.0316 µM)","viability, T/C (compound 0.1 µM)","viability, T/C (compound 0.316 µM)","viability, T/C (compound 1 µM)",IC50 (curve of compound),"viability, T/C (compound 0.00316 µM)","viability, T/C (compound 0.003 µM)","viability, T/C (compound 0.00949 µM)","viability, T/C (compound 0.03 µM)","viability, T/C (compound 0.0949 µM)","viability, T/C (compound 0.3 µM)",other results
CC1(O)CCCC1n1c(=O)c(C(F)F)cc2cnc(NC3CCN(S(C)(=O)=O)CC3)nc21 (stereo unspecified),100% [middle of 4 runs],,,,,,,,,,,"viability, T/C (compound 10 µM): 4.01% [middle of 4 runs]"
CCC(CC)c1cc(NC2CCC(N)C2)n2nccc2n1 (stereo unspecified),115% [middle of 4 runs],112% [middle of 4 runs],112% [middle of 4 runs],109% and 108% (2×) and 113%,1.9 µM and 1.97 µM and 2.03 µM,,,,,,,"viability, T/C (compound 3.16 µM): 9.12% [middle of 4 runs]; viability, T/C (compound 10 µM): 1.18% [middle of 4 runs]"
CCN1CCN(Cc2ccc(Nc3ncc(F)c(-c4cc(F)c5nc(C)n(C(C)C)c5c4)n3)nc2)CC1,103% [middle of 4 runs],,,,> 1 µM,103% [middle of 4 runs],,,,,,"viability, T/C (compound 0.01 µM): 104% [middle of 4 runs]"
CCc1c2c(nc3ccc(O)cc13)-c1cc3c(c(=O)n1C2)COC(=O)[C@]3(O)CC,,,,,1.34 nM [middle of 4 runs],,22.4% [middle of 4 runs],10.6% [middle of 4 runs],7.82% [middle of 4 runs],5.87% [middle of 4 runs],3.8% [middle of 4 runs],
CCn1c(-c2cc(N3CCN(C)CC3)cnc2C(C)OC)c2c3cc(ccc31)-c1csc(n1)CC(NC(=O)C1CC1C)C(=O)N1CCCC(N1)C(=O)OCC(C)(C)C2 (stereo unspecified),,,,,,,99.9% [middle of 7 runs],73.3% [middle of 8 runs],52.7% [middle of 8 runs],39.1% [middle of 8 runs],39.4% [middle of 8 runs],"viability, T/C (compound 0.000949 µM): 117% [middle of 8 runs]; IC50 [1]: 35.9 nM [middle of 8 runs]"
CCn1c(-c2cccnc2C(C)OC)c2c3cc(ccc31)N1CCOC(CC(NC(=O)C(C(C)C)N(C)C(=O)C3(F)CCN(C(=O)C#CC(C)(C)N(C)C)CC3)C(=O)N3CCCC(N3)C(=O)OCC(C)(C)C2)C1 (stereo unspecified),,,,,,,99.7% [middle of 8 runs],90.7% [middle of 8 runs],90.4% [middle of 8 runs],85.9% [middle of 8 runs],83.2% [middle of 8 runs],"viability, T/C (compound 0.000949 µM): 107% [middle of 8 runs]; IC50 [1]: > 0.3 µM"
C[C@@H](NC(=O)c1ncnc(N)c1Cl)c1ncc(C(=O)Nc2cc(C(F)(F)F)c(Cl)cn2)s1,102% (2×) and 107% and 101%,98.6% [middle of 4 runs],105% and 98.1% and 104% (2×),104% [middle of 4 runs],> 10 µM,,,,,,,"viability, T/C (compound 3.16 µM): 96% [middle of 4 runs]"
Cc1nc(N2CCC3(CC2)COC(C)C3N)c(CO)nc1Sc1ccnc(N)c1Cl (stereo unspecified),108% [middle of 4 runs],106% (3×) and 107%,102% [middle of 4 runs],,> 10 µM,,,,,,,
Nc1ccn(C2OC(CO)C(O)C2(F)F)c(=O)n1 (stereo unspecified),13.5% [middle of 4 runs],9.12% [middle of 4 runs],9.08% [middle of 4 runs],8.33% [middle of 4 runs],,101% [middle of 4 runs],,,,,,
O=C(c1ccc(F)c(F)c1Nc1ccc(I)cc1F)N1CC(O)([C@@H]2CCCCN2)C1,102% [middle of 4 runs],,,,,102% [middle of 4 runs],,,,,,"viability, T/C (compound 0.01 µM): 105% (2×) and 96.9% and 97.5%"
